Laboratory results from patent publication US12115176B2, “Methods and compositions relating to ClbP inhibition” (PRESIDENT AND FELLOWS OF HARVARD COLLEGE, priority 2021, dated 2024).
“Also recorded” adds a separate entry of the source.

How the values were obtained:
[1] = system: Penicillin Binding Proteins (PBPs); assay: Gel-based ABPP with BOCILLIN-FL probe
Text: To further explore the specificity of our inhibitors, another ABPP assay was used in which the broad-spectrum FP probe was replaced with a specific probe, BOCILLIN-FL, which targets penicillin binding proteins (PBPs) using a β-lactam warhead. This probe was chosen because of ClbP's homology to AmpC β-lactamases. Since PBPs are targeted by β-lactams, it was reasoned that the similarity of their binding pockets would mean a greater chance of identifying a secondary target among this family of enzymes.

[2] = system: HeLa cells infected with NC101; assay: HeLa infection assay with pks+ E. coli, cell cycle analysis by flow cytometry; format: cell-based, human
Experimental: Infection with pks^+ E. coli. Assays for cell-cycle arrest and FANCD2 ubiquitination were performed by seeding 24-well plates with 125,000 HeLa cells per well and incubating those plates under standard conditions for 24 hours. At the same time, cultures of NC101 and NC101ΔclbP were started from frozen stocks in LB broth and grown at 37° C. with shaking overnight. […] Cultures were monitored until an OD600 of 0.3-0.5 was reached. At that point, samples of the cultures were removed and DMSO stock solutions of the inhibitor of interest were added to each sample to a final concentration of 1% DMSO and the concentration of inhibitor indicated.
Media in the 24-well plate was aspirated, HeLa cells were washed with sterile DPBS (Thermo Fisher Scientific), and fresh DMEM+FBS+1% DMSO with the indicated concentration of inhibitor was added. A volume of E. coli equivalent to 2.5×10^7 bacteria based on OD in DMEM+FBS+1% DMSO with the indicated concentration of inhibitor was then added directly to wells (Multiplicity of Infection, MOI 1:100). Infections were carried out for 4 hours at 37° C. in a humidified 5% CO2 incubator. Media was then aspirated and cells were washed with DPBS twice to remove bacteria, and fresh DMEM+FBS+PSF supplemented with 50 μg/mL gentamicin was added.
Cell Cycle Analysis. Between 20 and 24 hours after infection, HeLa cells were trypsinized (0.25% Trypsin-EDTA, Gibco), washed with DPBS, and fixed in cold 70% ethanol and stored at 4° C. until flow cytometry analysis (24-48 hours). Cells were centrifuged at 800×g for 10 minutes and 70% ethanol was aspirated. Cells were resuspended in DPBS for 15 minutes, then centrifuged and supernatant aspirated again. Cells were then resuspended in DPBS with 0.2 mg/mL RNAse A (Invitrogen) and 0.02 mg/mL propidium iodide (Millipore Sigma). After 30 minutes, cells were analyzed on a BD LSR II Analyzer at the Harvard University Bauer Core Flow Cytometry Facility. For each replicate, 10,000 events were collected and results were gated for single cells and plotted using the FloJo™ software package.

[3] = system: Escherichia coli NC101; assay: Bacterial MIC assay (broth dilution); format: cell-based; details: Escherichia coli, NC101, 15 h, read-out: MICs by compound
Experimental: MICs of compounds against different bacterial species were determined using a modified version of a broth microdilution protocol which has been previously reported.^1 Briefly, cultures of each species indicated were inoculated from frozen stocks in deoxygenated Wilkins-Chalgren Anaerobic Medium (WCAM) inside of an anerobic chamber with an 92.5% N2/5% CO2/2.5% H2 atmosphere. Cultures were grown for 24-48 hours in a 37° C. incubator at which point an OD600-measurement was taken for each culture and was accordingly diluted in fresh WCAM to an equivalent of OD600=0.01. Diluted cultures were then distributed into the wells of a clear, flat-bottom 384-well plate and the compound of interest was added to a final DMSO concentration of 2% (or DMSO only for positive controls). […] mineral oil (Millipore Sigma) was deposited on top of the cultures and plates were covered with a clear adhesive plate seal. Plates were incubated at 37° C. for 16 hours, at which point the OD600 of all wells was recorded on a SpectraMax M2 plate reader (Molecular Devices).

[4] = system: Bifidobacterium longum; assay: Bacterial MIC assay (broth dilution); format: cell-based; details: 15 h, read-out: MICs by compound
[5] = target: E. coli BL21 overexpressing ClbP (Escherichia coli, UniProt Q0P7K6); assay: ClbP fluorescence activity assay (live cells); format: cell-based
Experimental: ClbP fluorescence activity assay (live cells). One 5 mL starter culture each E. coli BL21 pET-29b-ClbP and pET-29b-ClbP-S95A were inoculated from frozen stocks and grown overnight at 37° C. in LB medium supplemented with 50 μg/ml kanamycin (LB+kan). Overnight cultures were diluted 1:100 in fresh LB+kan and incubated at 37° C. to an OD600 of 0.3, at which point protein expression was induced by the addition of 500 μM isopropyl β-D-1-thiogalactopyranoside (IPTG) and cultures were moved to 15° C. for 4 hours. Cultures were then aliquoted in a black 384-well plate and the appropriate concentration of inhibitor was added as a DMSO stocks to a final concentration of 1% DMSO in a volume of 30 μL. Reactions were initiated by the addition of 10 μL of LB+kan+IPTG containing the fluorogenic substrate (final concentration=100 μM). Plastes were incubated at 25° C. with intermittent shaking while taking regular fluorescence measurements in a Bio-Tek Synergy HTX multimode plate reader with an excitation filter of 360/40 nm and an emission filter of 440/20 nm. “% activity” was determined based on the formula above using RFU measurements after 7 hours.

Question: How did the “competitive binding to BOCILLIN-FL labeled PBPs” value ([1]; B. cereus ATCC14579 lysate) turn out when `CC1(C)OB([C@@H](CC(N)=O)NC(=O)CCCc2ccccc2)OC1(C)C` [Compound 3] was run?
Answer: none of these PBPs showed any binding; also recorded: no competitive binding

Question: And the “competitive binding to BOCILLIN-FL labeled PBPs” value ([1]; E. coli NC101 lysate)?
Answer: none of these PBPs showed any binding; also recorded: no competitive binding

Question: What about the “concentration that completely blocks G2/M phase cell cycle arrest” value ([2]; HeLa and NC101, inhibitor in the infection medium, FIG. 12A) of the same compound?
Answer: ≤ 100 nM

Question: What about the “concentration that completely blocks G2/M phase cell cycle arrest” value ([2]; HeLa and pks+ E. coli, 1-hour preincubation of inhibitor with E. coli, FIG. 4) of the same compound?
Answer: ≤ 5 nM

Question: And the “cell cycle arrest phenotype of colibactin genotoxicity” value ([2]; HeLa cells infected with NC101, propidium iodide flow cytometry)?
Answer: can block the cell cycle arrest phenotype; also recorded: prevents cell cycle arrest

Question: And the IC50 ([2]; Homo sapiens, HeLa cells infected with pks+ E. coli, FIG. 4, read-out: apparent IC50 for inhibition of G2/M-phase arrest)?
Answer: ~10 nM

Question: What about the MIC [3] of the same compound?
Answer: > 200 µM

Question: What about the MIC [4] of the same compound?
Answer: > 200 µM

Question: What about the IC50 [5] of the same compound?
Answer: 18.3 nM
